Test results reported in patent US10005792B2, “Aminoindane-, aminotetrahydronaphthalene- and aminobenzocyclobutane-derived PRMT5-inhibitors” (CTXT PTY LTD, priority 2014, dated 2018).

What was measured:
[1] = system: symmetrical dimethylation of arginine (Di-Methyl Histone H4 Arginine 3) in cell line TE11; experiment: Revised PRMT5 Biomarker Assay; settings: Homo sapiens, TE-11; TE11 cells, 72 hours incubation, immunofluorescence, corrected for cell number (Hoechst 33342), plate reader based
Method: (§1) Compounds of the invention may be tested for potency to inhibit symmetrical dimethylation of arginine in the following assay:
The cell line TE11 was seeded at a density of 6,000 cells per well in 96 well optical quality tissue culture plates in DME medium and 10% foetal bovine serum, and allowed to adhere for 5 hours under standard culture conditions (37 degree Celsius, 5% CO2). Compound dilutions prepared in DMSO were added to the medium, with negative control wells reserved for treatment with DMSO only and positive controls receiving a potent PRMT5 inhibitor compound at 1 μM concentration. After incubation for 72 hours, the cells were fixed with 3.7% formaldehyde in PBS for 30 minutes at room temperature, washed with phosphate buffer saline and blocked with Odyssey blocking buffer (LI-COR, Lincoln, Nebr.). Rabbit anti-Di-Methyl Histone H4 Arginine 3 specific antibody (Epigentek) in Odyssey blocking buffer was added and incubated for 14 hours at 4 degree Celsius. After washing, anti-rabbit secondary antibody labelled with Alexa647 dye (LifeTechnologies) and Hoechst 33342 (1 μg/mL, SigmaAldrich) were added for 1 hour incubation. Plates were washed and read on a PerkinElmer Envision 2103 in fluorescence intensity scanning mode (24 scans across the well area). The methylation level information was corrected for the number of cells as expressed by the Hoechst 33342 stain, converted to percent inhibition relative to controls on the same plate and the data fitted against a four-parameter logistic model to determine the 50% inhibitory concentration (IC50 plate-reader based). Alternatively, the plates were imaged on a PerkinElmer Phenix high content imaging platform. Using a Columbus image analysis pipeline, individual nuclei were located by Hoechst 33342 stain and the methylation level was calculated from the Alexa647-related intensity in the same area. The resulting mean intensity per cell was directly converted to percent inhibition as outlined above (IC50, imager based)).

[2] = target: T1, Full-length PRMT5 enzyme co-expressed with MEP50 (Homo sapiens (Human), UniProt O14744); experiment: PRMT5 Biochemical Assay; settings: 200 nM histone H4 derived peptide substrate, 1 μM S-Adenosyl methionine, 4 hours at 37° C, Transcreener EPIGEN fluorescence polarisation
T1 sequence (O14744 whole entry): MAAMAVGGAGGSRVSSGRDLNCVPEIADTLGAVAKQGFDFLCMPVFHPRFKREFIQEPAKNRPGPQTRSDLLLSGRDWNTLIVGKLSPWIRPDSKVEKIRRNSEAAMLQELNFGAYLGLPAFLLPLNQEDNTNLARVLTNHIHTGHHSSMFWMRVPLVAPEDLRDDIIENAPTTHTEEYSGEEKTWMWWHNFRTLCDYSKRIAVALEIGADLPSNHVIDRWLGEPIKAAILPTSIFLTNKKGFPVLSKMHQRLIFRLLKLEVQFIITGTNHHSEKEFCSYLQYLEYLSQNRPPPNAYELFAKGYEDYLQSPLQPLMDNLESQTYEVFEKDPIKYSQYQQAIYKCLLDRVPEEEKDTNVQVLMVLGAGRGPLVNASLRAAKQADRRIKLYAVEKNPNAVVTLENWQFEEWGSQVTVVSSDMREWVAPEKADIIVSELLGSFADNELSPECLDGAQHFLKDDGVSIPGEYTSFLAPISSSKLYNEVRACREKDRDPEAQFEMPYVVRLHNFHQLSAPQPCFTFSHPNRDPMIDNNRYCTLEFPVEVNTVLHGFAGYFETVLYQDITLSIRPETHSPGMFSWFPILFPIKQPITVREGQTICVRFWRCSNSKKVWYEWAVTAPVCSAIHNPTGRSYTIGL
T1 sequence (Q9BQA1 whole entry partner): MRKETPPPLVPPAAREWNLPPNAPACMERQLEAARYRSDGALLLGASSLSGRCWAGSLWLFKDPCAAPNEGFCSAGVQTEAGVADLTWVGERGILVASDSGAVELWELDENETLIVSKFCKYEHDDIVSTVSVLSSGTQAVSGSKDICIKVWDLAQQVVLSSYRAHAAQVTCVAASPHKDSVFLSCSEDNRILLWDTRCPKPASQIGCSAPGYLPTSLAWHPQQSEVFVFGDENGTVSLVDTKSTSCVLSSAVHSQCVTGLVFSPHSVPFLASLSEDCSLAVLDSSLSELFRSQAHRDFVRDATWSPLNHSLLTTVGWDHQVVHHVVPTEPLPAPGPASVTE

[3] = target: T1, Full-length PRMT5 enzyme co-expressed with MEP50; experiment: Revised PRMT5 Biochemical Assay; settings: 1 μM histone H4 derived peptide substrate, 1 μM S-Adenosyl methionine, 4 hours at 37 degree Celsius, Transcreener EPIGEN fluorescence polarisation
Outline: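 Full-length human PRMT5 co-expressed with His-MEP50 in insect cells (15 ng/reaction), 1 μM H4-derived peptide and 1 μM SAM in PBS/0.01% Tween-20/egg albumin/1 mM DTT, 4 h at 37 °C. SAH formation read by Transcreener EPIGEN fluorescence polarisation after 90 min detection. IC50 from four-parameter fit of plate-normalised % inhibition.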

[4] = system: symmetrical dimethylation of arginine (Di-Methyl Histone H4R3) in cell line TE11; experiment: PRMT5 Biomarker Assay; format: cell-based; settings: Homo sapiens, TE-11; TE11 cells, 72 h incubation, EpiQuik Global Di-Methyl Histone H4R3 ELISA, corrected for total protein
Method: as §1
The cell line TE11 was seeded at a density of 12,000 cells per well in 96 well tissue culture plates in DME medium and 10% foetal bovine serum, and allowed to adhere overnight under standard culture conditions (37° C., 5% CO2). Compound dilutions prepared in DMSO were added to the medium, with negative control wells reserved for treatment with DMSO only and positive controls receiving a potent PRMT5 inhibitor. The concentration of the inhibitor had been previously determined to give maximum inhibition of the methylation. After incubation for 72 h, cells were washed twice in ice-cold PBS, lysed in lysis buffer (20 mM Tris pH 7.4, 135 mM NaCl, 1.5 mM MgCl2, 1 mM EGTA, 10% glycerol and 1% Triton-X100), centrifuged at 15,000×g and the supernatants collected for subsequent analysis. The methylation level was determined using the EpiQuik™ Global Di-Methyl Histone H4R3 Quantification ELISA Kit (Epigentek, Farmingdale, N.Y.) as per the manufacturer's recommendations; in parallel the total protein amount in the lysate was quantified using a Lowry protein assay. The methylation level was corrected for the total protein amount of each sample, normalised to the controls, and the data fitted against a four-parameter logistic model to determine the 50% inhibitory concentration (IC50).

IC50 [1]	IC50 [2]	IC50 [3]	IC50 [4]	SMILES
0.053 µM	210 nM	310 nM	11 nM	C[C@H]1COCCN1C(=O)c1ccc(C(=O)NC[C@@H](O)CNC2Cc3ccccc3C2)cc1 [Compound 38, N—((S)-3-((2,3-Dihydro-1H-inden-2-yl)amino)-2-hydroxypropyl)-4-((S)-3-methylmorpholine-4-carbonyl)benzamide]
0.04 µM	50 nM	155 nM	8 nM	CC(=O)N1CCC(Nc2cc(C(=O)NCC(O)CNC3Cc4ccccc4C3)ccn2)CC1 (centres unmarked) [Compound 35, 2-((1-Acetylpiperidin-4-yl)amino)-N-(3-((2,3-dihydro-1H-inden-2-yl)amino)-2-hydroxypropyl)isonicotinamide]
0.106 µM	171 nM		18 nM	O=C(NCC(O)CNC1Cc2ccccc2C1)c1ccc(C(=O)N2CCCCC2)cc1 (centres unmarked) [Compound 22, N-(3-((2,3-Dihydro-1H-inden-2-yl)amino)-2-hydroxypropyl)-4-(piperidine-1-carbonyl)benzamide]
0.025 µM	218 nM		30 nM	O=C(NC[C@@H](O)CNC1Cc2ccccc2C1)c1ccc(C(=O)N2CCOCC2)cc1 [Compound 15, (S)-N-(3-((2,3-Dihydro-1H-inden-2-yl)amino)-2-hydroxypropyl)-4-(morpholine-4-carbonyl)benzamide]
